From patent US12304912B2, “Fused bicyclic RAF inhibitors and methods for use thereof” (Jazz Pharmaceuticals Ireland Limited, priority 2020, dated 2025)
In brackets after ≈: the same amount, converted by molar mass.

Key:
HCT-116 cells = assay: HCT-116 CellTiter-Glo 3D cell proliferation assay; type: cell-based; conditions: Homo sapiens, HCT-116; HCT116 cells, 3D proliferation; read-out: 3D HCT116 pGI50 (converted)
Description: HCT-116 CellTiter-Glo 3D Cell Proliferation Assay
The human HCT-116 colorectal carcinoma cell line (ATCC CCL-247) endogenously expresses the KRAS^G13D mutation, which leads to enhanced survival and proliferative signaling. […] On the first day, HCT-116 cells were harvested, resuspended in growth medium (McCoys5A with Glutamax (Life Technologies 36600021) with 10% heat-inactivated fetal bovine serum (Sigma F9665)), and counted. Cells were plated in 100 μl per well in each well of a Corning 7007 96-well clear round bottom Ultra-Low Attachment plate (VWR 444-1020) to a final density of 1000 cells per well. Cells were seeded for pre- and post-treatment readouts. The cells were then incubated at 37° C. and 5% CO2 for 3 days (72 hours) to allow spheroid formation. After 72 hours, the plate seeded for a pre-treatment read was removed from the incubator to allow equilibration to room temperature for 30 minutes, before CellTitre-Glo® reagent was added to each well. The plates were incubated at room temperature for 5 minutes shaking at 300 rpm, followed by an incubation of 25 minutes on the benchtop before being read on the Envision reader (Perkin Elmer) as described below. On the same day, the cells plated for the post-treatment readout were dosed with compounds to produce a 9-point dose response, where the top concentration was 15 μM and following concentrations were at 1/2 log dilution intervals. These cells were subsequently incubated at 37° C. and 5% CO2 for another 4 days (96 hours). After 4 days, the plate was removed from the incubator to allow equilibration to room temperature for 30 minutes and treated with CellTitre Glo® reagent as stated above. […] The CellTitre Glo® reagent lyses the cells and contains luciferin and a luciferase (Ultra-Glo™ Recombinant Luciferase), which in the presence of ATP and oxygen can produce bioluminescence from luciferin. Therefore, plates were read on an EnVision reader (Perkin Elmer) and luminescence signals were recorded. Cell proliferation was determined on 4 days after dosing relative to the pre-treatment read. All data were analyzed using the Dotmatics or GraphPad Prism software packages. Inhibition of proliferation was assessed by determination of the GI50 value, which was defined as the concentration of compound required to decrease the level of cell proliferation by 50% when compared to DMSO control.

FeSSIF solubility assay = type: physicochemical; conditions: fed state simulated intestinal fluid (FeSSIF), thermodynamic from solid, pH 5 acetate buffer, 37° C., read-out: FESSIF Sol
Method in brief: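 FeSSIF (pH 5 acetate buffer, 1 mL) was added to 1.0 mg solid compound and shaken at 650 rpm and 37 °C for 24 h. After filtration, dissolved compound was quantified by LC-UV against a 250 μM calibration standard.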

WiDr cells = assay: WiDr CellTiter-Glo 3D cell proliferation assay; type: cell-based; conditions: Homo sapiens; WiDr cells, 3D proliferation; read-out: 3D WiDr pGI50 (converted)
[1] = Plasma protein binding assay, mouse plasma (mPPB); type: in vitro ADME; conditions: 5 μM, equilibrium dialysis 4 hours at 37° C.
Method in brief: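 Equilibrium dialysis of 5 μM compound in previously frozen human or mouse plasma against phosphate buffer, 4 h at 37 °C. Both chambers quantified by LC-MS/MS; % free = (1−((PC−PF)/PC))×100.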

[2] = Microsomal stability assay, human liver microsomes (HLM); type: in vitro ADME; conditions: 0.5 mg/mL protein, 1 μM substrate, 37° C.
Method in brief: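 Substrate depletion: 1 μM compound incubated at 37° C. with cryopreserved mouse or human liver microsomes at 0.5 mg·mL^−1 protein. Timed aliquots quenched in ice-cold organic solvent and measured by LC-MS/MS; t1/2 and CLint derived from the slope of ln % remaining versus time.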

| SMILES | GI50 (HCT-116 cells) [nM] | solubility thermodynamic at 24 h (FeSSIF solubility assay) [µg/mL] | GI50 (WiDr cells) [nM] | mPPB (% free) [1] [% free] | microsomal CLint at 1 μM [2] [µL/min/mg] |
| --- | --- | --- | --- | --- | --- |
| Cc1cc(-c2c[nH]c(C3COc4ccc(Oc5ccnc6c5CCC(=O)N6)cc4C3)n2)n(C)n1 (stereo not shown) [Compound 106, 5-[3-[4-(2,5-dimethylpyrazol-3-yl)-1H-imidazol-2-yl]chroman-6-yl]oxy-3,4-dihydro-1H-1,8-naphthyridin-2-one] | 437 | 28.1 (≈ 61.6 µM) | 1550 | 3.0 | 10.5 |
| O=C(Nc1cc(Oc2ccc3c(c2)CC(c2nc(-c4ccccc4)c[nH]2)CO3)ccn1)C1CC1 (racemic) [Compound 136] | 47.9 | 17.1 (≈ 37.8 µM) | 170 | 0.2 | 58.1 |
| O=C(Nc1nccc(Oc2ccc3c(c2)CC(c2nc(-c4ccccc4)c[nH]2)CO3)n1)C1CC1 (stereo not shown) [Compound 148, N-[4-[3-(4-phenyl-1H-imidazol-2-yl)chroman-6-yl]oxypyrimidin-2-yl]cyclopropanecarboxamide] | 490 | 104 (≈ 230 µM) | 1200 | 0.4 | 132 |
| O=C1CCc2c(Oc3ccc4c(c3)CC(c3nc(C5CCOCC5)c[nH]3)CO4)ccnc2N1 (stereo not shown) [Compound 132, 5-[3-(4-tetrahydropyran-4-yl-1H-imidazol-2-yl)chroman-6-yl]oxy-3,4-dihydro-1H-1,8-naphthyridin-2-one] | 661 | 41.9 (≈ 93.8 µM) | 1150 | 10.1 | 20.7 |
| O=C1CCc2c(Oc3ccc4c(c3)CC(c3nc(-c5cncc(C(F)F)c5)c[nH]3)CO4)ccnc2N1 (stereo not shown) [Compound 105, 5-[3-[4-[5-(difluoromethyl)-3-pyridyl]-1H-imidazol-2-yl]chroman-6-yl]oxy-3,4-dihydro-1H-1,8-naphthyridin-2-one] | 245 | 8.6 (≈ 17.6 µM) | 603 | 0.86 | 24.8 |
| CN1CCN(CC(=O)Nc2cc(Oc3ccc4c(c3)CC(c3nc(-c5ccccc5)c[nH]3)CO4)ccn2)CC1 (stereo not shown) [Compound 146, 2-(4-methylpiperazin-1-yl)-N-[4-[3-(4-phenyl-1H-imidazol-2-yl)chroman-6-yl]oxy-2-pyridyl]acetamide] | 380 | 404 (≈ 770 µM) | 813 | 0.7 | 33.4 |
| COc1ccsc1-c1c[nH]c(C2COc3ccc(Oc4ccnc5c4CCC(=O)N5)cc3C2)n1 (stereo not shown) [Compound 123] | 40.7 | 156 (≈ 330 µM) | 53.7 | 0.25 | 97.5 |
| O=C(CN1CCCC1)Nc1cc(Oc2ccc3c(c2)CC(c2nc(-c4ccccc4)c[nH]2)CO3)ccn1 (stereo not shown) [Compound 152] | 832 | 997 (≈ 2010 µM) | 5620 | 0.47 | 29 |
| Cc1cc(-c2c[nH]c(C3COc4ccc(Oc5ccnc6c5CCC(=O)N6)cc4C3)n2)ccn1 (stereo not shown) [Compound 117, 5-[3-[4-(2-methyl-4-pyridyl)-1H-imidazol-2-yl]chroman-6-yl]oxy-3,4-dihydro-1H-1,8-naphthyridin-2-one] | 214 | 1.4 (≈ 3.09 µM) | 708 | 2.3 | 43.3 |
| CC1CC1C(=O)Nc1cc(Oc2ccc3c(c2)CC(c2nc(-c4ccccc4)c[nH]2)CO3)ccn1 (stereo not shown) [Compound 157] | 263 | 116 (≈ 249 µM) | 661 | <0.1 | 35.7 |
| O=C1CCc2c(Oc3ccc4c(c3)CC(c3nc(-c5cncc(C(F)(F)F)c5)c[nH]3)CO4)ccnc2N1 (stereo not shown) [Compound 103, 5-[3-[4-[5-(trifluoromethyl)-3-pyridyl]-1H-imidazol-2-yl]chroman-6-yl]oxy-3,4-dihydro-1H-1,8-naphthyridin-2-one] | 288 | 5.2 (≈ 10.2 µM) | 537 | 0.6 | 11.6 |
